O=C(O)CCCC(=O)O
Conditions	solubility (mole fraction)
in acetic acid, 292.75 K	0.162
in acetic acid, 297.84 K	0.183
in acetic acid, 301.3 K	0.203
in acetic acid, 304.47 K	0.221
in acetic acid, 307.28 K	0.241
in acetic acid, 310.19 K	0.257
in acetic acid, 313.64 K	0.28
in acetic acid, 316.5 K	0.302
in acetic acid, 319.05 K	0.323
in acetic acid, 321.38 K	0.345
in acetic acid, 325.45 K	0.373
in acetic acid, 327.38 K	0.399
in acetic acid, 332.97 K	0.436
in acetic acid, 335.25 K	0.478
in acetic acid, 338.05 K	0.514
in acetic acid, 341.94 K	0.553
in acetic acid, 344.21 K	0.585
in acetic acid, 347.24 K	0.621
in acetic acid, 349.88 K	0.651
in acetic acid, 353.36 K	0.712
in cyclohexanol, 299.75 K	0.205
in cyclohexanol, 302.7 K	0.219
in cyclohexanol, 305.85 K	0.234
in cyclohexanol, 308.6 K	0.25
in cyclohexanol, 313.19 K	0.271
in cyclohexanol, 316 K	0.288
in cyclohexanol, 318.55 K	0.312
in cyclohexanol, 320.55 K	0.33
in cyclohexanol, 325.15 K	0.366
in cyclohexanol, 326.5 K	0.371
in cyclohexanol, 332.55 K	0.428
in cyclohexanol, 334.9 K	0.455
in cyclohexanol, 336.3 K	0.477
in cyclohexanol, 339.75 K	0.511
in cyclohexanol, 342.15 K	0.545
in cyclohexanol, 344.8 K	0.571
in cyclohexanol, 347.19 K	0.622
in cyclohexanol, 350.05 K	0.66
in cyclohexanol, 351.93 K	0.693
in cyclohexanol, 352.48 K	0.719
in cyclohexanol, 352.95 K	0.748
in cyclohexanone, 294 K	0.161
in cyclohexanone, 299.7 K	0.189
in cyclohexanone, 304.5 K	0.213
in cyclohexanone, 308.05 K	0.241
in cyclohexanone, 311.94 K	0.264
in cyclohexanone, 314.15 K	0.283
in cyclohexanone, 317.54 K	0.307
in cyclohexanone, 320.3 K	0.334
in cyclohexanone, 325.05 K	0.366
in cyclohexanone, 326.95 K	0.392
in cyclohexanone, 330.5 K	0.428
in cyclohexanone, 333.81 K	0.458
in cyclohexanone, 335.23 K	0.478
in cyclohexanone, 338.35 K	0.513
in cyclohexanone, 342.65 K	0.557
in cyclohexanone, 346.8 K	0.598
in cyclohexanone, 347.65 K	0.627
in cyclohexanone, 349.7 K	0.655
in cyclohexanone, 351.5 K	0.679
in cyclohexanone, 353.65 K	0.705
